Laboratory results from US7217688B2, “Methods and compositions for derepression of IAP-inhibited caspase” (The Burnham Institute, priority 2005, dated 2007).
Square brackets hold non-standard residues; d marks the D form. Ends that are not written are not given here. * marks the point of attachment. Phe(4-Cl) = N[C@@H](Cc1ccc(Cl)cc1)C(=O)O; dPhe(4-Cl) = N[C@H](Cc1ccc(Cl)cc1)C(=O)O; dPhe(4-F) = N[C@H](Cc1ccc(F)cc1)C(=O)O; 2Nal = N[C@@H](Cc1ccc2ccccc2c1)C(=O)O; d2Nal = N[C@H](Cc1ccc2ccccc2c1)C(=O)O; Fmoc = O=C(OCC1c2ccccc2-c2ccccc21)*; 2Thi = N[C@@H](Cc1cccs1)C(=O)O; Cha = N[C@@H](CC1CCCCC1)C(=O)O

What was measured:
XIAP-inhibited caspase-3 = biological target: T1, XIAP-inhibited caspase-3 (Homo sapiens, UniProt P98170); assay: caspase derepression assay (XIAP-inhibited caspase-3, Ac-DEVD-AFC hydrolysis); format: biochemical; details: for LC (lowest concentration with a ratio of 2 or higher in the derepression assay): tested at 0.4, 2, 10 and 50 micrograms per milliliter; for Activity: Table XIV, XIAP derepression assay; for reversing XIAP-mediated suppression of caspase 3: 50 μg/ml, full length XIAP
T1 construct: in the derepression assay using full length XIAP; made in house; host or cells: bacteria
Protocol: Caspase activity was assayed by release of 7-amino-4-trifluoromethyl-coumarin (AFC) from Ac-DEVD-AFC synthetic peptide using a Molecular Devices Spectromax 340 (see Zhou et al., J. Biol. Chem. 272:7797–7800 (1997)). […] The ratio of Vmax for hydrolysis of Ac-DEVD-AFC in the presence and absence of the candidate mixture was calculated and used to identify those that contain an agent that derepresses an IAP-inhibited caspase.
Screening of each mixture from the DCR390, TPI 1239 or TPI 1328 library, respectively, using the above described assay was carried out as follows. Each mixture was aliquoted in a 25 microliter volume and in duplicate to a well of a 96 well microtiter plate. […] Fluorescence of liberated AFC was immediately detected from each well for 30 minutes at 30 second intervals. The Vmax for hydrolysis of AC-DEVD-AFC from each well was measured using the softmax software package. Results of the screen for the DCR390 library are shown in Table I. Sets of mixtures having the same position fixed with different respective amino acids are arranged in 6 sections identified with the position number. […] The mixture in each section are arranged in descending order according to apparent velocity in the second column.
Briefly, recombinant proteins were produced in bacteria and purified as described, for example, in Deveraux et al., Nature 388:300–304(1997). […] Generation of fluorogenic AFC (7-amino-4-trifluoromethyl coumarin) product was measured with a spectrofluorometric plate reader in kinetic mode for 30 minutes at 37° C. using excitation and emission wavelengths of 405 nm and 510 nm, respectively. […] Control reactions lacked XIAP, and all assays were conducted in the linear range of substrate hydrolysis to avoid substrate depletion artifacts.

Jurkat leukemia cells = assay: Jurkat cell death (Annexin V / propidium iodide flow cytometry); format: cell-based; details: for ability to induce apoptosis in Jurkat cells: micromolar concentrations, compared to DMSO control
Protocol: The following assay was used to test the ability of individual compounds from the TPI 1396 and TPI 1391 libraries to induce apoptosis of cultured tumor cell lines. Each of the compounds listed in Table IX was individually added to Jurkat leukemia cells (6.25×10^5 cells/mL) in RPMI containing 2.5% FBS at various concentrations for 20 hours. After incubation, cells were washed and stained with FITC-conjugated Annexin V antibody and propidium iodide (Biovision; Mountain View, Calif.). Cells were incubated for 20 minutes at room temperature in the dark and fluorescence was measured by flow cytometry (FACScan, Immunocytometry system; Becton-Dickinson; San Jose, Calif.). Cells staining positive for Annexin V were deemed non-viable.

[1] = tested on: NCI panel of 60 tumor cell lines; assay: NCI panel of 60 tumor cell lines, protein-based colorimetric assay; parameters: species or system human; details: 48 hours
Protocol: Selected polyphenylurea compounds were tested on the National Cancer Institute (NCI) panel of 60 tumor cell lines (see FIG. 28a and FIG. 29).

[2] = Table XI, different functionalities at R2

T1 sequence (P98170 whole entry): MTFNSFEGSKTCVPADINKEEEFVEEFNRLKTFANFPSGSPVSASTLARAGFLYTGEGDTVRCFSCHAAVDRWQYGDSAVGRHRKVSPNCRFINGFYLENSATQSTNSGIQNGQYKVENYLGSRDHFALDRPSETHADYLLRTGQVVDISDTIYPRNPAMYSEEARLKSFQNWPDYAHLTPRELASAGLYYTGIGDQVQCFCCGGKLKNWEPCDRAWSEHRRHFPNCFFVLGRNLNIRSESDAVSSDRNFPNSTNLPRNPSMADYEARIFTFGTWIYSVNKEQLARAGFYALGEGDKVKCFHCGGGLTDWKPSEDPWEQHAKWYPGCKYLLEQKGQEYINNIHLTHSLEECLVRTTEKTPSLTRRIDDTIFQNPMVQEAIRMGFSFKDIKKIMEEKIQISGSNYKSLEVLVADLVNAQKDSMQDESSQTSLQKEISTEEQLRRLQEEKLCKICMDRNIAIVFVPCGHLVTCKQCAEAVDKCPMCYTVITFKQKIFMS

Molecule: (D-Nal)-(Lys-εFmoc)-(L-pClPhe)-(Lys-εFmoc) ([d2Nal]K(Fmoc)[Phe(4-Cl)]K(Fmoc)) [TPI 792-3]
- LC (lowest concentration with a ratio of 2 or higher in the derepression assay) (XIAP-inhibited caspase-3): 2 µg/mL

Molecule: COc1ccc(CCN(C(=O)Nc2ccccc2)[C@H](Cc2ccccc2)CN(C(=O)Nc2ccccc2)[C@@H](CNC(=O)Nc2ccccc2)CC2CCCCC2)cc1 [TPI 1396-31]
- Activity (relative caspase-3 activity, ratio of Vmax with compound to Vmax of caspase-3 and XIAP controls) (XIAP-inhibited caspase-3; [2]): 1.3

Molecule: COc1ccc(CCN2CCC[C@@H]2CN(C)[C@@H](CNC(=O)Nc2ccc(C)cc2)CC2CCCCC2)cc1 [TPI 1567-11]
- Activity (XIAP-inhibited caspase-3): 75 µM
- ability to induce apoptosis in Jurkat cells (Jurkat leukemia cells): capable of inducing apoptosis

Molecule: COc1ccc(CCN2CCC[C@H]2CN(C(=O)c2ccccc2)[C@@H](CNC(=O)c2ccccc2)CC2CCCCC2)cc1 [TPI 1572-18]
- Activity (XIAP-inhibited caspase-3): 164 µM

Molecule: CCN1CCC[C@H]1CN(C(=O)Nc1ccccc1)[C@@H](CNC(=O)Nc1ccccc1)CC1CCCCC1 [TPI 1572-11]
- Activity (XIAP-inhibited caspase-3): 89 µM

Molecule: COc1ccc(CCN2CCC[C@H]2CN(C)[C@@H](CNC(=O)Nc2ccccc2)CC2CCCCC2)cc1 [TPI 1572-14]
- Activity (XIAP-inhibited caspase-3): 103 µM

Molecule: CCN1CCC[C@@H]1CN(C)[C@@H](CNC(=O)Nc1ccccc1)CC1CCCCC1 [TPI 1567-5]
- Activity (XIAP-inhibited caspase-3): 209 µM

Molecule: (D-Nal)-(L-Nal)-(D-Lys-εFmoc)-(Lys-εFmoc) ([d2Nal][2Nal][dK](Fmoc)K(Fmoc)) [TPI 792-17]
- LC (lowest concentration with a ratio of 2 or higher in the derepression assay) (XIAP-inhibited caspase-3): 2 µg/mL

Molecule: COc1ccc(CCN2CCC[C@@H]2CN(C)[C@@H](CNC(=O)Nc2cc(Br)cc(Br)c2)CC2CCCCC2)cc1 [TPI 1567-14]
- Activity (XIAP-inhibited caspase-3): 81 µM
- ability to induce apoptosis in Jurkat cells (Jurkat leukemia cells): capable of inducing apoptosis

Molecule: COc1ccc(CCN2CCC[C@@H]2CN(C)[C@@H](CNC(=O)Nc2ccccc2)CC(C)C)cc1 [TPI 1577-3]
- Activity (XIAP-inhibited caspase-3): >241 µM

Molecule: (L-Ala)-(L-Trp)-(L-Trp)-(L-ThiAla) (AWW[2Thi]) [TPI 1332-1]
- reversing XIAP-mediated suppression of caspase 3 (XIAP-inhibited caspase-3): Active

Molecule: COc1ccc(CCN2CCC[C@@H]2CN(C)[C@@H](CNC(=O)Nc2ccc3ccccc3c2)CC2CCCCC2)cc1 [TPI 1577-9]
- Activity (XIAP-inhibited caspase-3): 23 µM
- ability to induce apoptosis in Jurkat cells (Jurkat leukemia cells): capable of inducing apoptosis

Molecule: Cc1ccc(CCN2CCC[C@@H]2CN(C)[C@@H](CNC(=O)Nc2ccccc2)CC2CCCCC2)cc1 [TPI 1577-8]
- Activity (XIAP-inhibited caspase-3): 88 µM

Molecule: CN(C[C@H]1CCCN1CCc1ccc(F)cc1)[C@@H](CNC(=O)Nc1ccccc1)CC1CCCCC1 [TPI 1577-7]
- Activity (XIAP-inhibited caspase-3): 71 µM

Molecule: COc1ccc(CCN2C[C@@H](O)C[C@@H]2CN(C)[C@@H](CNC(=O)Nc2ccccc2)CC2CCCCC2)cc1 [TPI 1567-24]
- Activity (XIAP-inhibited caspase-3): 122 µM

Molecule: CN(C[C@@H]1CCCN1CCC12CC3CC(CC(C3)C1)C2)[C@H](CCCCNC(=O)Nc1ccccc1)CNC(=O)Nc1ccccc1 [TPI 1567-18]
- Activity (XIAP-inhibited caspase-3): 61 µM

Molecule: COc1ccc(CCN2CCC[C@H]2CN(C(=O)Nc2ccc([N+](=O)[O-])cc2)[C@@H](CNC(=O)Nc2ccc([N+](=O)[O-])cc2)CC2CCCCC2)cc1 [TPI 1572-23]
- Activity (XIAP-inhibited caspase-3): 94 µM

Molecule: (D-Nal)-(D-pClPhe)-(L-pC1Phe)-(Lys-εFmoc) ([d2Nal][dPhe(4-Cl)][Phe(4-Cl)]K(Fmoc)) [TPI 792-9]
- LC (lowest concentration with a ratio of 2 or higher in the derepression assay) (XIAP-inhibited caspase-3): 10 µg/mL

Molecule: CN(C[C@H]1CCCN1CCc1ccccc1)[C@@H](CNC(=O)Nc1ccccc1)CC1CCCCC1 [TPI 1577-6]
- Activity (XIAP-inhibited caspase-3): 113 µM

Molecule: COc1ccc(CCN2CCC[C@H]2CN(C(=O)Nc2ccc(C)cc2)[C@@H](CNC(=O)Nc2ccc(C)cc2)CC2CCCCC2)cc1 [TPI 1572-21]
- Activity (XIAP-inhibited caspase-3): 69 µM

Molecule: COc1ccc(CCN2CCC[C@H]2CNC(=O)Nc2ccccc2)cc1 [TPI 1572-8]
- Activity (XIAP-inhibited caspase-3): >283 µM

Molecule: CCNC(=O)NC[C@@H](CC1CCCCC1)N(C[C@@H]1CCCN1CCc1ccc(OC)cc1)C(=O)NCC [TPI 1572-20]
- Activity (XIAP-inhibited caspase-3): 235 µM

Molecule: CN(CCCCC(CNC(=O)Nc1ccccc1)N(CC1CCCN1CCC12CC3CC(CC(C3)C1)C2)C(=O)Nc1ccccc1)C(=O)Nc1ccccc1 (centres unmarked) [TPI 1396-11]
- Activity (relative caspase-3 activity, ratio of Vmax with compound to Vmax of caspase-3 and XIAP controls) (XIAP-inhibited caspase-3; Table X, R2 = L-Proline): 2.6
- activity in the derepression assay using full length XIAP (XIAP-inhibited caspase-3; active / inactive): active
- % nonviable cells (Jurkat leukemia cells; 1 µM): 14%
- % nonviable cells (Jurkat leukemia cells; 10 μM): 90%
- % nonviable cells (Jurkat leukemia cells; 25 µM): 90%
- % nonviable cells (Jurkat leukemia cells; 50 µM): 90%
- average LD50 for the 60 cell lines [1]: 10 ± 2.8 µM
- median LD50 for the 60 cell lines [1]: 17 µM

Molecule: COc1ccc(CCN2CCC[C@@H]2CN(C)[C@@H](CNC(=O)Nc2ccc(F)cc2)CC2CCCCC2)cc1 [TPI 1567-12]
- Activity (XIAP-inhibited caspase-3): 124 µM
- ability to induce apoptosis in Jurkat cells (Jurkat leukemia cells): capable of inducing apoptosis

Molecule: COc1ccc(CCN(CCCC[C@@H](CN(C(=O)Nc2ccccc2)[C@@H](CNC(=O)Nc2ccccc2)CC2CCCCC2)N(C)C(=O)Nc2ccccc2)C(=O)Nc2ccccc2)cc1 [TPI 1396-25]
- Activity (relative caspase-3 activity, ratio of Vmax with compound to Vmax of caspase-3 and XIAP controls) (XIAP-inhibited caspase-3; [2]): 1.6

Molecule: (L-ThiAla)-(Lys-εFmoc)-(D-Nal)-(Lys-εFmoc) ([2Thi]K(Fmoc)[d2Nal]K(Fmoc)) [TPI 792-19]
- LC (lowest concentration with a ratio of 2 or higher in the derepression assay) (XIAP-inhibited caspase-3): 2 µg/mL

Molecule: (L-Cha)-(D-Na1)-(L-Trp)-(L-ThiAla) ([Cha][d2Nal]W[2Thi]) [TPI 1332-41]
- reversing XIAP-mediated suppression of caspase 3 (XIAP-inhibited caspase-3): Active

Molecule: COc1ccc(CCN2CCC[C@@H]2CN(C)CCNC(=O)Nc2ccccc2)cc1 [TPI 1577-2]
- Activity (XIAP-inhibited caspase-3): 157 µM

Molecule: COc1ccc(CCN2C[C@@H](O)C[C@@H]2CN(C(=O)Nc2ccccc2)[C@@H](CNC(=O)Nc2ccccc2)CC2CCCCC2)cc1 [TPI 1567-23]
- Activity (XIAP-inhibited caspase-3): 35 µM

Molecule: (L-Ala)-(D-Trp)-(L-Trp)-(L-ThiAla) (A[dW]W[2Thi]) [TPI 1332-47]
- reversing XIAP-mediated suppression of caspase 3 (XIAP-inhibited caspase-3): Active

Molecule: O=C(NC[C@@H](CC1CCCCC1)N(C[C@@H]1CCCN1)C(=O)Nc1ccccc1)Nc1ccccc1 [TPI 1572-10]
- Activity (XIAP-inhibited caspase-3): >210 µM

Molecule: COc1ccc(CCN2CCC[C@H]2CN(C(=O)Nc2ccc(F)cc2)[C@@H](CNC(=O)Nc2ccc(F)cc2)CC2CCCCC2)cc1 [TPI 1572-22]
- Activity (XIAP-inhibited caspase-3): 79 µM

Molecule: (D-Nal)-(L-Nal)-(L-pClPhe)-(Lys-εFmoc) ([d2Nal][2Nal][Phe(4-Cl)]K(Fmoc)) [TPI 792-15]
- LC (lowest concentration with a ratio of 2 or higher in the derepression assay) (XIAP-inhibited caspase-3): 2 µg/mL

Molecule: (L-ThiAla)-(D-pClPhe)-(L-pClPhe)-(Lys-εFmoc) ([2Thi][dPhe(4-Cl)][Phe(4-Cl)]K(Fmoc)) [TPI 792-27]
- LC (lowest concentration with a ratio of 2 or higher in the derepression assay) (XIAP-inhibited caspase-3): 2 µg/mL

Molecule: COc1ccc(CCN2CCC[C@@H]2CN(C)[C@H](C)CNC(=O)Nc2ccccc2)cc1 [TPI 1577-1]
- Activity (XIAP-inhibited caspase-3): 252 µM

Molecule: COc1ccc(CCN2CCC[C@H]2CN(C(=O)Nc2ccccc2)[C@H](C)CNC(=O)Nc2ccccc2)cc1 [TPI 1572-16]
- Activity (XIAP-inhibited caspase-3): 149 µM

Molecule: COc1ccc(CCN2CCC[C@@H]2CN(C)[C@@H](CNC(=O)Nc2ccc(I)cc2)CC2CCCCC2)cc1 [TPI 1567-13]
- Activity (XIAP-inhibited caspase-3): 58 µM
- ability to induce apoptosis in Jurkat cells (Jurkat leukemia cells): capable of inducing apoptosis

Molecule: (L-ThiAla)-(Lys-εFmoc)-(L-pClPhe)-(pF-D-F) ([2Thi]K(Fmoc)[Phe(4-Cl)][dPhe(4-F)]) [TPI 792-22]
- LC (lowest concentration with a ratio of 2 or higher in the derepression assay) (XIAP-inhibited caspase-3): 2 µg/mL

Molecule: COc1ccc(CCN2CCC[C@H]2CN(C(C)=O)[C@@H](CNC(C)=O)CC2CCCCC2)cc1 [TPI 1572-19]
- Activity (XIAP-inhibited caspase-3): >219 µM

Molecule: CNC[C@@H](CC1CCCCC1)N(C[C@@H]1CCCN1CCc1ccc(OC)cc1)C(=O)Nc1ccccc1 [TPI 1572-17]
- Activity (XIAP-inhibited caspase-3): 132 µM

Molecule: COc1ccc(CCN2CCC[C@H]2CN(CCNC(=O)Nc2ccccc2)C(=O)Nc2ccccc2)cc1 [TPI 1572-15]
- Activity (XIAP-inhibited caspase-3): 171 µM
